What all share (format): cell-based
One experiment concerns the target T1, Human Nav1.5 (Homo sapiens, UniProt Q14524).
T1 construct: expressed in transfected cells; host or cells: HEK293
Put plainly: Nav1.5 Assay (VIPR, as Nav1.8 assay). Particulars: HEK293 cells expressing Human Nav1.5; average of replicates. The procedure:
The Nav1.5 assay is performed in HEK293 cells expressing Human Nav1.5 in the same way as the Nav1.8 assay described above.

Experiment [1] deals with tetrodotoxin-sensitive voltage-gated sodium channels including NaV1.2, NaV1.3 and NaV1.7. Put plainly: TTX-S Assay in SHSY-5Y cell line (VIPR, veratridine opener). The following applies: read-out: TTX-S IC50, veratridine 50 μM as opener, average of replicates.
The target of a further experiment is T2, Human Nav1.8 (Homo sapiens, UniProt Q9Y5Y9).
T2 construct: expressed in transfected cells; host or cells: HEK293 (selected with Geneticine)
In words: VIPR Assay for Nav1.8 Compounds (FRET membrane potential, deltamethrin opener). The following applies: HEK293 cells expressing Human Nav1.8; deltamethrin as opener; average of replicates.

T1 sequence (Q14524 whole entry): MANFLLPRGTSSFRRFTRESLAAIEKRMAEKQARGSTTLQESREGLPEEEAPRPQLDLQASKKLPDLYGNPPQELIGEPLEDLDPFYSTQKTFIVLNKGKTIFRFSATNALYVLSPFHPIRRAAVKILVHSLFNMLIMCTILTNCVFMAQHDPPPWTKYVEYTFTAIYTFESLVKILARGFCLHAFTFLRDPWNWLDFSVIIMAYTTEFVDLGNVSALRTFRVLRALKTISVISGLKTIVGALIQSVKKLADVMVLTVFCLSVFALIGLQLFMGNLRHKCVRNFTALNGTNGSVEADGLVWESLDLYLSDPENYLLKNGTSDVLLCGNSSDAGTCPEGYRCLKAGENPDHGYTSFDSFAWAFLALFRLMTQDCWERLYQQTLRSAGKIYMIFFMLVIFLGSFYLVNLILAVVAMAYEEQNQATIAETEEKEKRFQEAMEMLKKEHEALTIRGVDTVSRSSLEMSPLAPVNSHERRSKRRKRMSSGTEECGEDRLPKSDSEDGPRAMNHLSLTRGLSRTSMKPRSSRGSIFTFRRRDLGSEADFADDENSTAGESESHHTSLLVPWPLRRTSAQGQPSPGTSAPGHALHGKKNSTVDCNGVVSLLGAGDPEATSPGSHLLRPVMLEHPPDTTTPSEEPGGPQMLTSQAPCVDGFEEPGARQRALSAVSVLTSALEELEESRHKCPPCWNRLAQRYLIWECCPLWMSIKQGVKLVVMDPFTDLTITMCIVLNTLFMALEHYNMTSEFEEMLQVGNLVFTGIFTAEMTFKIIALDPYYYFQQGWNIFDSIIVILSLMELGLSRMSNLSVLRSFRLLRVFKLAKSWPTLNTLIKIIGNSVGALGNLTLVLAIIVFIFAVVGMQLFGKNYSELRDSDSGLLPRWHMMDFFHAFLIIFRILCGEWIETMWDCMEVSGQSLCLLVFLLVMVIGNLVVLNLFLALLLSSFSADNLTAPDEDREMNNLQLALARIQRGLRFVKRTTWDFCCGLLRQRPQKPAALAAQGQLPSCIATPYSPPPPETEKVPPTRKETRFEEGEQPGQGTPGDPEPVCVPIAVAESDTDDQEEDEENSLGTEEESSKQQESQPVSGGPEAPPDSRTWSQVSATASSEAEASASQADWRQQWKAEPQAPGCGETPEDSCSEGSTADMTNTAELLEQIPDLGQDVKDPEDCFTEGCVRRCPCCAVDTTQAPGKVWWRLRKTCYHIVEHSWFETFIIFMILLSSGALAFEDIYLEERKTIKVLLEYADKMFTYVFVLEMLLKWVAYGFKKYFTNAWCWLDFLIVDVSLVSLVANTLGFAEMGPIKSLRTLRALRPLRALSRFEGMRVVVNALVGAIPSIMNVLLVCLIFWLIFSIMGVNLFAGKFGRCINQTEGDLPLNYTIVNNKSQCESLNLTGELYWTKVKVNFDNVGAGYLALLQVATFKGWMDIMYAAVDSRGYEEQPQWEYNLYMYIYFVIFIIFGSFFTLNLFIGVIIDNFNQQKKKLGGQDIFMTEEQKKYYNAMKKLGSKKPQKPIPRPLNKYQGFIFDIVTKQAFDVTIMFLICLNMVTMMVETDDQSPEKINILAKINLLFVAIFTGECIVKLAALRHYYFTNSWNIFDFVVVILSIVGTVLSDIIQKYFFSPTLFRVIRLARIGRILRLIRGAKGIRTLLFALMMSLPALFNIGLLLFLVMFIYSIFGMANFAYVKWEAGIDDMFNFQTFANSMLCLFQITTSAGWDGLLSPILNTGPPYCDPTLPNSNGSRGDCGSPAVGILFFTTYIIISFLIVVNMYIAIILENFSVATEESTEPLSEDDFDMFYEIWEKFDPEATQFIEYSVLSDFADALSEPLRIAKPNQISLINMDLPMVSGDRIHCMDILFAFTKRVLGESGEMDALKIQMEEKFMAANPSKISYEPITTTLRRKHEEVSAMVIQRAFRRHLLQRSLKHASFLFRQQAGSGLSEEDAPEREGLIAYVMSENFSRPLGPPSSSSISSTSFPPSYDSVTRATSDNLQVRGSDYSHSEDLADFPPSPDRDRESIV
T2 sequence (Q9Y5Y9 whole entry): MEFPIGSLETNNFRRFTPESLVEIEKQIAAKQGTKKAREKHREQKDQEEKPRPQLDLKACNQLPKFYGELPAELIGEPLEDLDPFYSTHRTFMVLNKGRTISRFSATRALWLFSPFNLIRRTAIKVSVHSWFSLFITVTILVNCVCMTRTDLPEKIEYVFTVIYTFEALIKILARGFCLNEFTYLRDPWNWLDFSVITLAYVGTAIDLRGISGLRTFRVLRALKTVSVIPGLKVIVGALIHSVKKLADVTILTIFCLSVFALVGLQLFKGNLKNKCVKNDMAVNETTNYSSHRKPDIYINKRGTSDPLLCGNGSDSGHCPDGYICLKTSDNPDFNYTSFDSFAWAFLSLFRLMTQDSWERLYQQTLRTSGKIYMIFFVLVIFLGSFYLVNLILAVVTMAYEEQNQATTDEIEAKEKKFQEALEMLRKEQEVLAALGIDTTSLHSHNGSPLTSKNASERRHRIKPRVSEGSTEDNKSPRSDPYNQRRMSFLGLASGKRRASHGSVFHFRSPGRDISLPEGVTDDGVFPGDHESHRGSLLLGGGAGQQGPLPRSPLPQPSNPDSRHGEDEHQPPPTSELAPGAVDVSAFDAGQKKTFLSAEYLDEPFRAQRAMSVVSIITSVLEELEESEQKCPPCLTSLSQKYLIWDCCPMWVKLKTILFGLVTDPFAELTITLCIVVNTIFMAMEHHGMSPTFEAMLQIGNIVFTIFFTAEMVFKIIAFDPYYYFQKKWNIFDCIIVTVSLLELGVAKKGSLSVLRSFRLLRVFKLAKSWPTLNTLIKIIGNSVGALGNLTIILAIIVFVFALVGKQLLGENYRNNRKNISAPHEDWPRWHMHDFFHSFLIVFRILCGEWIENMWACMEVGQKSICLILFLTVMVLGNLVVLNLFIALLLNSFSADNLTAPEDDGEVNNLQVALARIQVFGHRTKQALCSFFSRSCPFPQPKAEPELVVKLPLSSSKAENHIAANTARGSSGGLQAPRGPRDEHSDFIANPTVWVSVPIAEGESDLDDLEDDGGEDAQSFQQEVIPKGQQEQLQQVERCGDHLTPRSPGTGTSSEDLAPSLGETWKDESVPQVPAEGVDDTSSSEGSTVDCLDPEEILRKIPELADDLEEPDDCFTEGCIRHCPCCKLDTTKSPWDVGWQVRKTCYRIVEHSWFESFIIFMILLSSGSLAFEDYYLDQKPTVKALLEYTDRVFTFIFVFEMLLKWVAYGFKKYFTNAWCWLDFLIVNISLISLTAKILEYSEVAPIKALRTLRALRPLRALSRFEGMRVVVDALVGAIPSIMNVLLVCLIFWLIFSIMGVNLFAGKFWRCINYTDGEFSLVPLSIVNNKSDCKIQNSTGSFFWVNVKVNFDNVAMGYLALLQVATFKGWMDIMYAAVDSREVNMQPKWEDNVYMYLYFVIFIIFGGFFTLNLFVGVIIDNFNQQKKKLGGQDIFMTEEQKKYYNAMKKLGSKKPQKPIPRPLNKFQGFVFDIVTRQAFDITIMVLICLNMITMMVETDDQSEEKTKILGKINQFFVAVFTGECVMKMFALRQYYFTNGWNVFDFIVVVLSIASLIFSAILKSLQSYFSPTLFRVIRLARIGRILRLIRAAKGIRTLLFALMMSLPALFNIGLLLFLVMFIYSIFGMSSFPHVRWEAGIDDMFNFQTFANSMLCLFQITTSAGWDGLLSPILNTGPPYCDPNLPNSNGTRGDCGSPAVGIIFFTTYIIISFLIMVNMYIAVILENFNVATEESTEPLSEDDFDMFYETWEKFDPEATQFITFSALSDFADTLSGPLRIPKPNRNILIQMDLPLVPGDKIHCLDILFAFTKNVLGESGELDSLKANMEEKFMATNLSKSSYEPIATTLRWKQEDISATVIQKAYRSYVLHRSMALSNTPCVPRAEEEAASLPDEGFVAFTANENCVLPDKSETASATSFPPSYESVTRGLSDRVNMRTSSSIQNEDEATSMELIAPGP

As a reminder, the IC50 is the midpoint of a concentration-inhibition curve. In the case of `Nc1nc(NC(=O)c2conc2C(F)(F)F)cnc1-c1cc(F)ccc1C(F)(F)F` [Example 14, N-{6-Amino-5-[5-fluoro-2-(trifluoromethyl)phenyl]ovrazin-2-yl}-3-trifluoromethylisoxazole-4-carboxamide], the values for the IC50 (against Human Nav1.5; in experiment [1]; against Human Nav1.8) were over 32 µM, 31 µM and 2.5 µM, respectively.

Take `Cc1nocc1C(=O)Nc1cnc(-c2cc(F)ccc2C(F)(F)F)c(N)n1` [Example 10, N-{6-amino-5-[5-fluoro-2-(trifluoromethyl)phenyl]pyrazin-2-yl}-3-methylisoxazole-4-carboxamide]: the IC50 at Human Nav1.5 was over 32 µM; in experiment [1] it was over 32 µM; at Human Nav1.8, 4.7 µM.

With `CCn1nccc1C(=O)Nc1cnc(-c2ccccc2OC(F)(F)F)c(N)n1` [Example 4, N-{6-Amino-5-[2-(trifluoromethoxy)phenyl]pyrazin-2-yl}-1-ethyl-1H-pyrazole-5-carboxamide], the IC50 was over 32 µM on Human Nav1.5, over 32 µM in experiment [1] and 27 µM against Human Nav1.8.

Take `Cc1nocc1C(=O)Nc1cnc(-c2cc(Cl)ccc2OC(F)(F)F)c(N)n1` [Example 3, N-{6-Amino-5-[5-chloro-2-(trifluoromethoxy)phenyl]pyrazin-2-yl}-3-methylisoxazole-4-carboxamide]: the IC50 at Human Nav1.5 is over 32 µM; in experiment [1], 16 µM; on Human Nav1.8, 4.3 µM.

For the compound `CCOc1ccc(OC(F)(F)F)c(-c2ncc(NC(=O)c3conc3C)nc2N)c1` [Example 17, N-(6-Amino-5-[5-ethoxy-2-{trifluoromethoxy)phenyl]pyrazin-2-yl}-3-methylisoxazole-4-carboxamide], the IC50 against Human Nav1.5 is over 32 µM; at Human Nav1.8, 1.9 µM.

`COCc1oncc1C(=O)Nc1cnc(-c2ccccc2OC(F)(F)F)c(N)n1` [Example 9, N-{6-Amino-5-[2-(trifluoromethoxy)phenyl]pyrazin-2-yl}-5-(methoxymethyl)isoxazole-4-carboxamide]: the concentration for half-maximal inhibition (IC50) against Human Nav1.5 was over 32 µM; in experiment [1] it was 30 µM; against Human Nav1.8, 20 µM.

As for `Cn1nccc1C(=O)Nc1cnc(-c2cc(F)ccc2OC(F)(F)F)c(N)n1` [Example 15], the 50% inhibitory concentration (IC50) against Human Nav1.5 is over 32 µM; in experiment [1] it was over 32 µM; at Human Nav1.8, 16 µM.

As for `Cc1nocc1C(=O)Nc1cnc(-c2ccccc2C(F)(F)F)c(N)n1` [Example 2, N-{6-Amino-5-[2-(trifluoromethyl)phenyl]pyrazin-2-yl}-3-methylisoxazole-4-carboxamide], the IC50 is over 32 µM in experiment [1] and 8.7 µM on Human Nav1.8.

With `Cc1nocc1C(=O)Nc1cnc(-c2cc(F)ccc2OC(F)(F)F)c(N)n1` [Example 13, N-{6-Amino-5-[5-fluoro-2-(trifluoromethoxy)phenyl]pyrazin-2-yl}-3-methylisoxazole-4-carboxamide], the figures for the IC50 (against Human Nav1.5; in experiment [1]; against Human Nav1.8) were over 32 µM, over 32 µM and 3.8 µM, respectively.

Consider `CC(C)n1nccc1C(=O)Nc1cnc(-c2ccccc2OC(F)(F)F)c(N)n1` [Example 5, N-{6-Amino-5-[2-(trifluoromethoxy)phenyl]pyrazin-2-v1}-1-isopropyl-1H-pyrazole-5-carboxamide], for which the IC50 on Human Nav1.5 was over 32 µM; in experiment [1], 29 µM; on Human Nav1.8 it was 19 µM.

Regarding `COCc1nocc1C(=O)Nc1cnc(-c2ccccc2OC(F)(F)F)c(N)n1` [Example 6, N-{6-Amino-5-[2-(trifluoromethoxy)phenyl]pyrazin-2-yl}-3-(methoxymethyl)isoxazole-4-carboxamide], the half-maximal inhibitory concentration (IC50) at Human Nav1.5 was over 32 µM; in experiment [1], 19 µM; at Human Nav1.8, 20 µM.

Turning to `Cc1nocc1C(=O)Nc1cnc(-c2ccccc2OC(F)(F)F)c(N)n1` [Example 1, N-{6-Amino-5-[2-(trifluoromethoxy)phenyl]pyrazin-2-yl}-3-methylisoxazole-4-carboxamide], the IC50 on Human Nav1.5 is over 32 µM; in experiment [1] it was 30 µM; against Human Nav1.8, 3.6 µM.

In the case of `Cn1nccc1C(=O)Nc1cnc(-c2cc(Cl)ccc2OC(F)(F)F)c(N)n1` [Example 11, N-{6-Amino-5-[5-chloro-2-(trifluoromethoxy)phenyl]pyrazin-2-yl}-methyl-1H-pyrazole-5-carboxamide], the half-inhibitory concentration (IC50) against Human Nav1.5 was over 32 µM; in experiment [1] it was over 32 µM; on Human Nav1.8, 12 µM.

`Nc1nc(NC(=O)c2conc2C(F)(F)F)cnc1-c1ccccc1OC(F)(F)F` [Example 12, N-{6-Amino-5-[2-(trifluoromethoxy)phenyl]pyrazin-2-yl}-3-(trifluoromethyl)isoxazole-4-carboxamide]: the IC50 at Human Nav1.5 is over 32 µM; in experiment [1] it was 21 µM; against Human Nav1.8 it was 2.8 µM.

For `COCc1nocc1C(=O)Nc1cnc(-c2cc(Cl)ccc2OC(F)(F)F)c(N)n1` [Example 7], the IC50 came to 21 µM on Human Nav1.5, 17 µM in experiment [1] and 4.6 µM against Human Nav1.8.

As for `CCOc1ccc(OC(F)(F)F)c(-c2ncc(NC(=O)c3ccnn3C)nc2N)c1` [Example 16, N-{6-Amino-5-[5-ethoxy-2-(trifluoromethoxy)phenyl]pyrazin-2-yl}-1-methyl-1H-pyrazole-5-carboxamide], the 50% inhibitory concentration (IC50) at Human Nav1.5 was over 32 µM; on Human Nav1.8, 19 µM.

Turning to `COCc1nocc1C(=O)Nc1cnc(-c2cc(F)ccc2C(F)(F)F)c(N)n1` [Example 8, N-{6-Amino-5-[5-fluoro-2-(trifluoromethyl)phenyl]pyrazin-2-yl}-3-(methoxymethyl)isoxazole-4-carboxamide], the half-maximal inhibitory concentration (IC50) on Human Nav1.5 was over 32 µM; against Human Nav1.8, 11 µM.

These data come from patent publication US20100227872A1, “PYRAZINE DERIVATIVES” (priority 2007, published 2010).
